Columns and labels:
D(4) dopamine receptor [1] = target: T1, D(4) dopamine receptor (Homo sapiens, UniProt P21917); assay: Displacement of [3H]-YM 09151 from D4 receptor
T1 sequence (P21917 whole entry): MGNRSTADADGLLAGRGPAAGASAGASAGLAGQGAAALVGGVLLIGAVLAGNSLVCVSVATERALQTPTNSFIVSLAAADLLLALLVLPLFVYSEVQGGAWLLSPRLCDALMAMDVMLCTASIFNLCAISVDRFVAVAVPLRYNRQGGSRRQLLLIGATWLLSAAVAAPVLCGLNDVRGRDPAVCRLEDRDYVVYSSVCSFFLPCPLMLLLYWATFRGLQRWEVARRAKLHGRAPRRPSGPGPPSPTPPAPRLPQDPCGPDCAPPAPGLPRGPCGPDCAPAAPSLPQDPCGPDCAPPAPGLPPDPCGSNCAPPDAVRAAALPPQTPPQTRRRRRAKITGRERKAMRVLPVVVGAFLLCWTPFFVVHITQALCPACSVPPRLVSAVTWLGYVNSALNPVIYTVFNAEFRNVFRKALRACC

[2] = target: T2, Adrenergic receptor alpha-1 (Rattus norvegicus, UniProt P15823+P23944+P43140); assay: Displacement of [3H]prazosin from alpha-1 adrenergic receptor of rat brain homogenate
T2 sequence (P15823 whole entry): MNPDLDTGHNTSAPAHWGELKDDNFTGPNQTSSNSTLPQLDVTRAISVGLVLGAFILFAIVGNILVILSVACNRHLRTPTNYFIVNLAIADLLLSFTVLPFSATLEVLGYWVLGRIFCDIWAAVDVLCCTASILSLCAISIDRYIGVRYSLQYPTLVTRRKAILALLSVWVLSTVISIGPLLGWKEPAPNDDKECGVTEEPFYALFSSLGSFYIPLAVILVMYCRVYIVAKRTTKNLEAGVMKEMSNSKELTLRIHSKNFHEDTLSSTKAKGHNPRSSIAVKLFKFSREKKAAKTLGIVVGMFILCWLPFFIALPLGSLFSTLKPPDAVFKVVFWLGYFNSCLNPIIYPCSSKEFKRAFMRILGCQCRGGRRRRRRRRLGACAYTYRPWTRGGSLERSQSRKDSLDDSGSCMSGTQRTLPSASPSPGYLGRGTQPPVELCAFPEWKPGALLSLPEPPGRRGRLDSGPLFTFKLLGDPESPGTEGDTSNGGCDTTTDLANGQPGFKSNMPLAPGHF
T2 sequence (P23944 whole entry): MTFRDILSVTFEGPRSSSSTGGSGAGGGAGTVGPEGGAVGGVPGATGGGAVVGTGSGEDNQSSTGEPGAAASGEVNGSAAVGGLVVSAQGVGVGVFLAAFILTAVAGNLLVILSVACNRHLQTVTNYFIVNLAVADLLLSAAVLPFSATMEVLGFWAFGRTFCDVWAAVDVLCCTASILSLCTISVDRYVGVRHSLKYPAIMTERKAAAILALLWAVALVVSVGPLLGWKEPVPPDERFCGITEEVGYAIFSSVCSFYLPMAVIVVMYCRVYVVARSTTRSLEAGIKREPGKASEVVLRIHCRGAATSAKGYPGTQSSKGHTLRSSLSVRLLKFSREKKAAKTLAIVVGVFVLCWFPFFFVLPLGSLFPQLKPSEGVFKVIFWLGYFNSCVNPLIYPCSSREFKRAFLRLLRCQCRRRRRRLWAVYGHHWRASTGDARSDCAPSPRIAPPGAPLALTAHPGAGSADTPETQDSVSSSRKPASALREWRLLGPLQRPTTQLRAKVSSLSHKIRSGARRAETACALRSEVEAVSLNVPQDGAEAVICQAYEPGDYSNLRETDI
T2 sequence (P43140 whole entry): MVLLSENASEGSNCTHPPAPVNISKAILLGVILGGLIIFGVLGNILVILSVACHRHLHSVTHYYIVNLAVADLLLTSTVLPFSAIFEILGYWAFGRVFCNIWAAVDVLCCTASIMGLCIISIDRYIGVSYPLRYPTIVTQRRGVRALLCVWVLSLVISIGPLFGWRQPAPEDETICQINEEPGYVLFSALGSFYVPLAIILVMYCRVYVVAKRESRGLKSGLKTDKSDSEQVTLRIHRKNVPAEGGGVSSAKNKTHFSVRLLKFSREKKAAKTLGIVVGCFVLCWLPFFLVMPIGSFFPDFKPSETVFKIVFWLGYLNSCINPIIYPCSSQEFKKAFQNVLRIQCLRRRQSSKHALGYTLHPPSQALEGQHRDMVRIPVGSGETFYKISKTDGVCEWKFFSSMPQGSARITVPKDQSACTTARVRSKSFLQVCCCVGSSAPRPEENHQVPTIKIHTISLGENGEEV

D(2) dopamine receptor [3] = target: T3, D(2) dopamine receptor (Homo sapiens, UniProt P14416); assay: Displacement of [3H]-YM 09151 from D2 receptor
T3 sequence (P14416 whole entry): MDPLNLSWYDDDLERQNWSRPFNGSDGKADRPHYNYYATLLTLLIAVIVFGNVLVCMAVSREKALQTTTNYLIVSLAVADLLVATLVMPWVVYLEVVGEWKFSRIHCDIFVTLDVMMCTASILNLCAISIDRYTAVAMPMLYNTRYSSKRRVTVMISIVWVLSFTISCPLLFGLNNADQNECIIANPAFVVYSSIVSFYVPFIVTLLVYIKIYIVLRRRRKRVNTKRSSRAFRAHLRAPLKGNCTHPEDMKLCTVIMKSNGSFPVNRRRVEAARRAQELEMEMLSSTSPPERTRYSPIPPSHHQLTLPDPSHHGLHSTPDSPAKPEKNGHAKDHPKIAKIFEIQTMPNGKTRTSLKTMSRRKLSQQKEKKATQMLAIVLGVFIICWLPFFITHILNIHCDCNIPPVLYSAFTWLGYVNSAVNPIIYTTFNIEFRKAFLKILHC

D(2) dopamine receptor [4] = target: T3, D(2) dopamine receptor; assay: D2 receptor functional activity was measured through reversal of quinpirole inhibited, forskolin stimulated cAMP production from whole cells
D(4) dopamine receptor [5] = target: T1, D(4) dopamine receptor; assay: D4 receptor functional activity was measured inhibition of quinpirole stimulated [35S]GTP-gamma-S binding from cell membranes.

SMILES	Ki (D(4) dopamine receptor [1])	Ki [2]	Ki (D(2) dopamine receptor [3])	Ki (D(2) dopamine receptor [4])	Ki (D(4) dopamine receptor [5])
COc1cc(C)ccc1CN1CCN(C2CCc3cccc4c3N(C2=O)C(C)(C)C4)CC1 (configuration not stated)	34 nM	653 nM	952 nM		
Cc1ccc(CN2CCN(C3CCc4cccc5c4N(C3=O)C(C)C5)CC2)cc1 (configuration not stated)	10 nM	1000 nM	26 nM		
COc1ccc(C)cc1CN1CCN(C2CCc3cccc4c3N(C2=O)C(C)(C)C4)CC1 (configuration not stated)	65 nM	983 nM	313 nM		
Cc1ccc(CN2CCN(C3CCc4cccc5c4N(C3=O)C(C)(C)C5)CC2)cc1 (configuration not stated)	12 nM	490 nM	165 nM		
COc1ccc(Cl)cc1CN1CCN(C2CCc3cccc4c3N(C2=O)C(C)(C)C4)CC1 (configuration not stated)	29 nM	1056 nM	220 nM		

Second part, the compound after the results:

Ki (D(4) dopamine receptor [1])	Ki [2]	Ki (D(2) dopamine receptor [3])	Ki (D(2) dopamine receptor [4])	Ki (D(4) dopamine receptor [5])	SMILES
	1000 nM	139 nM			CC1Cc2cccc3c2N1C(=O)C(N1CCN(Cc2ccc(Cl)cc2)CC1)CC3 (configuration not stated)
	1361 nM	209 nM			Cc1ccc(CN2CCN(C3CCc4cccc5c4N(CC5)C3=O)CC2)cc1 (configuration not stated)
5 nM	2284 nM	116 nM	62 nM	3 nM	O=C1C(N2CCN(Cc3ccc(Cl)cc3)CC2)CCc2cccc3c2N1CC3 (configuration not stated)
	1735 nM				CC1(C)Cc2cccc3c2N1C(=O)C(N1CCN(Cc2ccc(Cl)cc2)CC1)CC3 (configuration not stated)
	2678 nM				CCN1C(=O)C(N2CCN(Cc3ccc(Cl)cc3)CC2)CCc2ccccc21 (configuration not stated)
	1265 nM				CCN1C(=O)C(N2CCN(Cc3ccc(Cl)cc3)CC2)Cc2ccccc21 (configuration not stated)
